Test results published in patent publication US20240317727A1 (Duke University, priority 2018, published 2024).

Key:
[1] = molecular target: T1, purified recombinant human HSF1 (HSF1 DNA binding domain) (Homo sapiens, UniProt Q00613); assay: Melting temperature of HSF1 DBD with HSF1 degrader compounds (Sypro orange); details: 12.5 micromolar compound, 5 micromolar HSF1 DBD, compared to DMSO; read-out: ΔTm (° C.)
T1 sequence (Q00613 15-120): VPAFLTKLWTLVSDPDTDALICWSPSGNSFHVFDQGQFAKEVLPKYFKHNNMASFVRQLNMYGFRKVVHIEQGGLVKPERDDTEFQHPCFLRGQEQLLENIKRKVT
Method: The melting temperature (ΔTm) for purified recombinant human HSF1 (HSF1 DNA binding domain) was determined in the presence of HSF1 degrader compounds shown in Table 5 and compared to the solvent DMSO. Sypro orange dye was added to the HSF1 DBD (5 micromolar final concentration) in buffer, mixed and distributed to wells in 384 well microtiter plates. HSF1 degrader compound (12.5 micromolar) or DMSO solvent was added to three replicate wells per compound concentration, mixed and plates loaded into a Quant Studio thermnocycler and run on a temperature gradient from 25° C. to 85° C. with increments of 0.5° C. steps. Melting curves were obtained and analyzed using the ThermnoFisher Shift Software 1.4 fitted with a Boltzmann equation to determine the change in melting temperature of the protein in the presence of DMSO as compared to compound. The difference in the melting temperature under these two conditions was assigned as the change in melting temperature of ΔTm.

[2] = tested on: C4-2 prostate cancer cells; assay: C4-2 cell proliferation, Cell Titre Glo; format: cell-based; details: Homo sapiens, 48-hour period, 9-point dilution series, read-out: Cell Viability IC50
Method: Next, cell viability of C4-2 prostate cancer cells was determined. C4-2 prostate cancer cells were grown in RMPI-1640 (no L-glutamine, Gibco 21870076) supplemented with 10% fetal bovine […] (non-heat-inactivated, Cytiva Hyclone SH30071.03). […] A 9-point dilution series was used to assess the ability of each compound to inhibit the growth of C4-2 prostate cancer cells over a 48-hour period, as compared to negative control solvent, DMSO. Cell proliferation was measured by the Cell Titre Glo assay using 384 well microtiter plate reader to quantitate luminescence. The IC50 was determined from the values obtained.

DNAJB1 equals Hsp40 = assay: HSF1 target gene transcript expression qPCR in C4-2 cells, Hsp40; format: cell-based; details: Homo sapiens, 2 hours then SNX-2112 (100 nM) 5 hr, vs GAPDH and DMSO
Method: (§1) Next, the change in heat shock protein gene expression in C4-2 prostate cancer cells was determined. C4-2 prostate cancer cells were grown in RMPI-1640 (no L-glutamine, Gibco 21870076) supplemented with 10% fetal bovine […] (non-heat-inactivated, Cytiva Hyclone SH30071.03). To quantitatively measure the inhibition of HSF1 activity in C4-2 prostate cancer cells, compounds or DMSO were added to triplicate C4-2 cell cultures for 2 hours. HSF1 activity was then stimulated with the Hsp90 inhibitor SNX-2112 (100 nM) for an additional 5 hr at 37° C. in the presence of HSF1 degrader compounds or DMSO. Total RNA was extracted, converted to cDNA and used in qPCR assays to quantify the change in HSF1 target gene transcript expression (HSPA4L equals Hsp70, HSPB1 equals Hsp27 and DNAJB1 equals Hsp40) as compared to GAPDH internal control gene, and then compared to DMSO negative control.

Hsp70 = assay: HSF1 target gene transcript expression qPCR in C4-2 cells, Hsp70; format: cell-based; details: Homo sapiens, 2 hours then SNX-2112 (100 nM) 5 hr, vs GAPDH and DMSO
Method: as §1

[3] = Rat liver microsome stability; format: in vitro ADME; details: rat liver microsomes, 37° C., read-out: Microsome Stability T1/2
Method: Next, the microsome stability in rats was determined for select compounds from Table 5. Test compounds are incubated with rat liver microsomes supplemented with co-factors at 37° C. Typical conditions were a compound concentration of 1 μM and 5 sampling time-points (0, 5, 15, 30 and 45 minutes), in duplicate. At each time-point, the reactions were terminated by the addition of organic solvent. The samples were centrifuged and the parent compound concentration was evaluated by LC-MS/MS measurements. Control compounds were included with well-established stability when incubated with rat microsomes. Multiple time points were used to determine % parent compound remaining at each time point and to calculate the Tiu2 for each compound in rat liver microsomes. A higher T1/2 indicates increased compound stability in microsomes.

[4] = molecular target: T2, recombinant HSF1 DNA-binding domain (DBD) (Homo sapiens, UniProt Q00613); assay: Differential Scanning Fluorimetry (DSF), HSF1 DBD melting temperature; details: Table 3; 5 μM HSF1 DBD, 25PM Compound; positive = stabilizes, negative = destabilizes HSF1
T2 sequence (Q00613 15-120): T1 sequence (Q00613 15-120)

ΔTm at 12.5 µM [1] [°C] | IC50 [2] [µM] | half-life at 1 μM [3] [h] | ΔTm at 25 µM [4] [°C] | Compound | mrna remaining at 10 µM (DNAJB1 equals Hsp40) [%] | mrna remaining at 10 µM (Hsp70) [%]
1.77 | 1.76 | 2.56 |  | N#Cc1ccc(NC(=O)Nc2ccc(Cl)c(S(=O)(=O)C(F)(F)F)c2)cc1 [Compound 243, 1-(4-chloro-3-((trifluoromethyl)sulfonyl)phenyl)-3-(4-cyanophenyl)urea] | 39.5 | 38.5
2.11 | 2.19 | 2.58 |  | N#Cc1ccc(NC(=O)Nc2ccc3c(c2)S(=O)(=O)C=C3)cc1 [Compound 244, 1-(4-cyanophenyl)-3-(1,1-dioxidobenzo[b]thiophen-6-yl)urea] |  | 
-0.64 | 0.81 |  |  | N#Cc1ccc(NC(=O)Nc2ccc3c(c2)S(=O)(=O)C=C3)nc1 [Compound 266, 1-(5-cyanopyridin-2-yl)-3-(1,1-dioxidobenzo[b]thiophen-6-yl)urea] | 93 | 83
1 | > 10 |  | 2.28 | N#Cc1ccc(NC(=O)Nc2ccc(Cl)c(S(=O)(=O)C(F)(F)F)c2)c(CCN2CCOCC2)c1 [Compound 298, 1-(4-chloro-3-((trifluoromethyl)sulfonyl)phenyl)-3-(4-cyano-2-(2-morpholinoethyl)phenyl)urea] |  | 
0.2 | > 10 |  | 0.49 | N#Cc1ccc(NC(=O)Nc2ccc(Cl)c(S(=O)(=O)C(F)(F)F)c2)c(OCCN2CCOCC2)c1 [Compound 299, 1-(4-chloro-3-((trifluoromethyl)sulfonyl)phenyl)-3-(4-cyano-2-(2-morpholinoethoxy)phenyl)urea] |  | 

More lines, now with the values behind:

Compound | ΔTm at 12.5 µM [1] [°C] | IC50 [2] [µM] | half-life at 1 μM [3] [h] | ΔTm at 25 µM [4] [°C] | mrna remaining at 10 µM (DNAJB1 equals Hsp40) [%] | mrna remaining at 10 µM (Hsp70) [%]
O=C(Nc1ccc(F)cc1)Nc1ccc(Cl)c([N+](=O)[O-])c1 [Compound 17, 1-(4-chloro-3-nitrophenyl)-3-(4-fluorophenyl)urea] | 3.69 | 5.61 | 1.54 |  | 23.6 | 30.4
O=C(Nc1ccc(F)cc1)Nc1ccc(Cl)c(S(=O)(=O)C(F)(F)F)c1 [Compound 54, 1-[4-chloro-3-(trifluoromethylsulfonyl)phenyl]-3-(4-fluorophenyl)urea] | 2.1 | 3.18 |  |  | 37 | 23
N#Cc1ccc(NC(=O)Nc2ccc(Cl)c(C(F)(F)F)c2)cc1 [Compound 242, 1-(4-chloro-3-(trifluoromethyl)phenyl)-3-(4-cyanophenyl)urea] | 2.62 | 1.98 | 14.9 |  | 71 | 55
N#Cc1ccc(NC(=O)Nc2ccc3nsnc3c2)cc1 [Compound 245, 1-(benzo[c][1,2,5]thiadiazol-5-yl)-3-(4-cyanophenyl)urea] | 2.74 | > 10 |  |  | 39 | 36
COc1cc(NC(=O)Nc2ccc(Cl)c(C(F)(F)F)c2)ccc1C#N [Compound 247, 1-(4-chloro-3-(trifluoromethyl)phenyl)-3-(4-cyano-3-methoxyphenyl)urea] | 2.8 | 2.4 |  |  | 73 | 63
N#Cc1ccc(NC(=O)Nc2ccc3c(c2)S(=O)(=O)C=C3)cc1C(F)(F)F [Compound 256, 1-(4-cyano-3-(trifluoromethyl)phenyl)-3-(1,1-dioxidobenzo[b]thiophen-6-yl)urea] | 1.9 | 3.47 | 1.23 |  |  | 
N#Cc1ccc(NC(=O)Nc2ccc3c(c2)S(=O)(=O)C=C3)cn1 [Compound 265, 1-(6-cyanopyridin-3-yl)-3-(1,1-dioxidobenzo[b]thiophen-6-yl)urea] | 0.84 | 9.69 |  |  | 77 | 88
N#Cc1ccc(NC(=O)Nc2ccc(Cl)c(S(=O)(=O)C(F)(F)F)c2)c(CN2CCOCC2)c1 [Compound 297, 1-(4-chloro-3-((trifluoromethyl)sulfonyl)phenyl)-3-(4-cyano-2-(morpholinomethyl)phenyl)urea] | 1.1 | > 10 |  | 2.08 |  | 
